{"source": "patent US20050227989A1", "about": "“Polycyclic thiazoles as potassium ion channel modulators” (ICAgen, Inc., priority 2004, published 2005)", "data": [{"biological_target": "hSK2 (Homo sapiens, UniProt Q9H2S1)", "experiment": "86Rb+ efflux assay for compound activity towards hSK channels", "type": "cell-based", "conditions": "86Rb+ efflux stimulated with calcium ionophore; drug 0.01 to 30 μM in EBSS; read-out: hSK2 Inhibitory Activity", "units": {"IC50": "nM"}, "values": [{"compound": "Cc1ccnc(Nc2nc(-c3cnccn3)cs2)c1", "note": "[(4-Methyl-pyridin-2-yl)-(4-pyrazin-2-yl-thiazol-2-yl)-amine]", "IC50": "30 to 100"}, {"compound": "c1ccc(-c2csc(Nc3nccs3)n2)nc1", "note": "[(4-Pyridin-2-yl-thiazol-2-yl)-thiazol-2-yl-amine]", "IC50": "1000 to 30000"}, {"compound": "Cc1ccnc(Nc2nc(-c3c(C)nc4ncccn34)cs2)c1", "note": "[[4-(2-Methyl-imidazo[1,2-a]pyrimidin-3-yl)-thiazol-2-yl]-(4-methyl-pyridin-2-yl)-amine]", "IC50": "1000 to 30000"}, {"compound": "C=C(C)c1ccc(Nc2nc(-c3nccs3)cs2)nc1", "note": "[[2,4′]Bithiazolyl-2′-yl-(5-isopropenyl-pyridin-2-yl)-amine]", "IC50": "1000 to 30000"}, {"compound": "Cc1ccnc(Nc2nc(-c3c(C)nc4ccccn34)cs2)c1", "note": "[[4-(2-Methyl-imidazo[1,2-a]pyridin-3-yl)-thiazol-2-yl]-(4-methyl-pyridin-2-yl)-amine]", "IC50": "1000 to 30000"}, {"compound": "O=C1CCCN1c1ccc(Nc2nc(-c3nccs3)cs2)nc1", "note": "[1-[6-([2,4′]Bithiazolyl-2′-ylamino)-pyridin-3-yl]-pyrrolidin-2-one]", "IC50": "30 to 100"}, {"compound": "[(4-Methyl-pyridin-2-yl)-(4-pyridin-2-yl-thiazol-2-yl)-amine]2 Zn(II) nHCl Complex", "IC50": "< 30"}, {"compound": "O=C1CCCN1c1ccc(Nc2nc(-c3cnccn3)cs2)nc1", "note": "[1-[6-(4-Pyrazin-2-yl-thiazol-2-ylamino)-pyridin-3-yl]-pyrrolidin-2-one]", "IC50": "< 30"}, {"compound": "Brc1ccc(Nc2nc(-c3ccccn3)cs2)nc1", "note": "[(5-Bromo-pyridin-2-yl)-(4-pyridin-2-yl-thiazol-2-yl)-amine]", "IC50": "1000 to 30000"}, {"compound": "Brc1ccc(Nc2nc(-c3nccs3)cs2)nc1", "note": "[[2,4′]Bithiazolyl-2′-yl-(5-bromo-pyridin-2-yl)-amine]", "IC50": "1000 to 30000"}, {"compound": "Fc1ccc(Nc2nc(-c3ccccn3)cs2)nc1", "note": "[(5-Fluoro-pyridin-2-yl)-(4-pyridin-2-yl-thiazol-2-yl)-amine]", "IC50": "1000 to 30000"}, {"compound": "Cc1cnc(Nc2nc(-c3ccccn3)cs2)c(Br)c1", "note": "[(3-Bromo-5-methyl-pyridin-2-yl)-(4-pyridin-2-yl-thiazol-2-yl)-amine]", "IC50": "1000 to 30000"}, {"compound": "C=C(C)c1ccc(Nc2nc(-c3cnccn3)cs2)nc1", "note": "[(5-Isopropenyl-pyridin-2-yl)-(4-pyrazin-2-yl-thiazol-2-yl)-amine]", "IC50": "100 to 1000"}, {"compound": "COc1ccc(Nc2nc(-c3nccs3)cs2)nc1", "note": "[[2,4′]Bithiazolyl-2′-yl-(5-methoxy-pyridin-2-yl)-amine]", "IC50": "100 to 1000"}, {"compound": "FC(F)(F)c1ccc(Nc2nc(-c3ccccn3)cs2)nc1", "note": "[(4-Pyridin-2-yl-thiazol-2-yl)-(5-trifluoromethyl-pyridin-2-yl)-amine]", "IC50": "1000 to 30000"}, {"compound": "Cc1cc(Nc2nc(-c3ccccn3)cs2)ncc1I", "note": "[(5-Iodo-4-methyl-pyridin-2-yl)-(4-pyridin-2-yl-thiazol-2-yl)-amine]", "IC50": "100 to 1000"}, {"compound": "Cc1sc(Nc2ccccn2)nc1-c1ccccn1", "note": "[(5-Methyl-4-pyridin-2-yl-thiazol-2-yl)-pyridin-2-yl-amine]", "IC50": "< 30"}, {"compound": "Cc1cc(C)nc(Nc2nc(-c3ccccn3)cs2)c1", "note": "[(4,6-Dimethyl-pyridin-2-yl)-(4-pyridin-2-yl-thiazol-2-yl)-amine]", "IC50": "1000 to 30000"}, {"compound": "c1ccc(-c2csc(Nc3ccc(N4CCOCC4)cn3)n2)nc1", "note": "[(5-Morpholin-4-yl-pyridin-2-yl)-(4-pyridin-2-yl-thiazol-2-yl)-amine]", "IC50": "30 to 100"}, {"compound": "O=[N+]([O-])c1ccc(Nc2nc(-c3nccs3)cs2)nc1", "note": "[[2,4′]Bithiazolyl-2′-yl-(5-nitro-pyridin-2-yl)-amine]", "IC50": "1000 to 30000"}, {"compound": "c1cncc(-c2ccc(Nc3nc(-c4nccs4)cs3)nc2)c1", "note": "[[3,3′]Bipyridinyl-6-yl-[2,4′]bithiazolyl-2′-yl-amine]", "IC50": "1000 to 30000"}, {"compound": "CN1CCN(c2ccc(Nc3nc(-c4ccccn4)cs3)nc2)C(=O)C1", "note": "[4-Methyl-1-[6-(4-pyridin-2-yl-thiazol-2-ylamino)-pyridin-3-yl]-piperazin-2-one]", "IC50": "1000 to 30000"}, {"compound": "CSc1sc(Nc2ccccn2)nc1-c1ccccn1", "note": "[(5-Methylsulfanyl-4-pyridin-2-yl-thiazol-2-yl)-pyridin-2-yl-amine]", "IC50": "1000 to 30000"}, {"compound": "Cc1ccnc(Nc2nc(-c3ccccn3)c(Cl)s2)c1", "note": "[(5-Chloro-4-pyridin-2-yl-thiazol-2-yl)-(4-methyl-pyridin-2-yl)-amine]", "IC50": "100 to 1000"}, {"compound": "c1csc(-c2ccc(Nc3nc(-c4nccs4)cs3)nc2)c1", "note": "[[2,4′]Bithiazolyl-2′-yl-(5-thiophen-2-yl-pyridin-2-yl)-amine]", "IC50": "1000 to 30000"}, {"compound": "Clc1ccc(Nc2nc(-c3nccs3)cs2)nc1", "note": "[[2,4′]Bithiazolyl-2′-yl-(5-chloro-pyridin-2-yl)-amine]", "IC50": "1000 to 30000"}, {"compound": "Cc1ccnc(Nc2nc(-c3cc(C)ccn3)cs2)c1", "note": "[(4-Methyl-pyridin-2-yl)-[4-(4-methyl-pyridin-2-yl)-thiazol-2-yl]-amine]", "IC50": "30 to 100"}, {"compound": "Cc1ccc(Nc2nc(-c3cnccn3)cs2)nc1", "note": "[(5-Methyl-pyridin-2-yl)-(4-pyrazin-2-yl-thiazol-2-yl)-amine]", "IC50": "30 to 100"}, {"compound": "c1ccc(-c2csc(Nc3nc4ccccc4[nH]3)n2)nc1", "note": "[(1H-Benzoimidazol-2-yl)-(4-pyridin-2-yl-thiazol-2-yl)-amine]", "IC50": "100 to 1000"}, {"compound": "c1ccc(Nc2nc(-c3ccccn3)cs2)nc1", "note": "[Pyridin-2-yl-(4-pyridin-2-yl-thiazol-2-yl)-amine]", "IC50": "< 30"}, {"compound": "CC1CCN(c2ccc(Nc3nc(-c4ccccn4)cs3)nc2)CC1", "note": "[(4-Methyl-3,4,5,6-tetrahydro-2H-[1,3′]bipyridinyl-6′-yl)-(4-pyridin-2-yl-thiazol-2-yl)-amine]", "IC50": "30 to 100"}, {"compound": "CN1CCN(c2ccc(Nc3nc(-c4cnccn4)cs3)nc2)C(=O)C1", "note": "[4-Methyl-1-[6-(4-pyrazin-2-yl-thiazol-2-ylamino)-pyridin-3-yl]-piperazin-2-one]", "IC50": "1000 to 30000"}, {"compound": "CC(C)(C)c1ccc(Nc2nc(-c3ccccn3)cs2)nc1", "note": "[(5-tert-Butyl-pyridin-2-yl)-(4-pyridin-2-yl-thiazol-2-yl)-amine]", "IC50": "1000 to 30000"}, {"compound": "CC(C)c1ccc(Nc2nc(-c3cnccn3)cs2)nc1", "note": "[(5-Isopropyl-pyridin-2-yl)-(4-pyrazin-2-yl-thiazol-2-yl)-amine]", "IC50": "1000 to 30000"}, {"compound": "c1ccc(Nc2nc(-c3cccs3)cs2)nc1", "note": "[Pyridin-2-yl-(4-thiophen-2-yl-thiazol-2-yl)-amine]", "IC50": "1000 to 30000"}, {"compound": "Brc1sc(Nc2ccccn2)nc1-c1ccccn1", "note": "[(5-Bromo-4-pyridin-2-yl-thiazol-2-yl)-pyridin-2-yl-amine]", "IC50": "1000 to 30000"}, {"compound": "COC(=O)c1ccc(Nc2nc(-c3ccccn3)cs2)nc1", "note": "[6-(4-Pyridin-2-yl-thiazol-2-ylamino)-nicotinic acid methyl ester]", "IC50": "1000 to 30000"}, {"compound": "Nc1ccc(Nc2nc(-c3nccs3)cs2)nc1", "note": "[N^2-[2,4′]Bithiazolyl-2′-yl-pyridine-2,5-diamine]", "IC50": "30 to 100"}, {"compound": "Cc1cc(I)cnc1Nc1nc(-c2ccccn2)cs1", "note": "[(5-Iodo-3-methyl-pyridin-2-yl)-(4-pyridin-2-yl-thiazol-2-yl)-amine]", "IC50": "100 to 1000"}, {"compound": "COc1sc(Nc2ccccn2)nc1-c1ccccn1", "note": "[(5-Methoxy-4-pyridin-2-yl-thiazol-2-yl)-pyridin-2-yl-amine]", "IC50": "1000 to 30000"}, {"compound": "c1ccc(-c2ccc(Nc3nc(-c4ccccn4)cs3)nc2)cc1", "note": "[(5-Phenyl-pyridin-2-yl)-(4-pyridin-2-yl-thiazol-2-yl)-amine]", "IC50": "1000 to 30000"}, {"compound": "CC(C)c1ccc(Nc2nc(-c3nccs3)cs2)nc1", "note": "[[2,4′]Bithiazolyl-2′-yl-(5-isopropyl-pyridin-2-yl)-amine]", "IC50": "1000 to 30000"}, {"compound": "CC(C)c1ccc(Nc2nc(-c3ccccn3)cs2)nc1", "note": "[(5-Isopropyl-pyridin-2-yl)-(4-pyridin-2-yl-thiazol-2-yl)-amine]", "IC50": "30 to 100"}, {"compound": "c1ccc(Nc2csc(Nc3ccccn3)n2)nc1", "note": "[N^2,N^4-Di-pyridin-2-yl-thiazole-2,4-diamine]", "IC50": "1000 to 30000"}, {"compound": "CN1CCN(c2ccc(Nc3nc(-c4nccs4)cs3)nc2)CC1", "note": "[[2,4′]Bithiazolyl-2′-yl-[5-(4-methyl-piperazin-1-yl)-pyridin-2-yl]-amine]", "IC50": "1000 to 30000"}, {"compound": "[(4-Methyl-pyridin-2-yl)-(4-pyridin-2-yl-thiazol-2-yl)-amine]2 Fe(II) nH2ClO4 Complex", "IC50": "< 30"}, {"compound": "CCCCCCc1ccc(Nc2nc(-c3ccccn3)cs2)nc1", "note": "[(5-Hexyl-pyridin-2-yl)-(4-pyridin-2-yl-thiazol-2-yl)-amine]", "IC50": "1000 to 30000"}, {"compound": "Cc1ccnc(Nc2nc(-c3c(C)nc4cc(C)ccn34)cs2)c1", "note": "[[4-(2,7-Dimethyl-imidazo[1,2-a]pyridin-3-yl)-thiazol-2-yl]-(4-methyl-pyridin-2-yl)-amine]", "IC50": "1000 to 30000"}, {"compound": "Cc1ccnc(Nc2nc(-c3nccs3)cs2)c1", "note": "[[2,4′]Bithiazolyl-2′-yl-(4-methyl-pyridin-2-yl)-amine]", "IC50": "100 to 1000"}, {"compound": "c1csc(-c2csc(Nc3ccc(N4CCOCC4)cn3)n2)n1", "note": "[[2,4′]Bithiazolyl-2′-yl-(5-morpholin-4-yl-pyridin-2-yl)-amine]", "IC50": "100 to 1000"}]}, {"biological_target": "hSK2 (Homo sapiens, UniProt Q9H2S1)", "experiment": "86Rb+ efflux assay for compound activity towards hSK channels", "type": "cell-based", "conditions": "read-out: hSK2 Inhibitory Activity", "units": {"IC50": "nM"}, "values": [{"compound": "c1ccc(-c2csc(Nc3ncccn3)n2)nc1", "note": "[(4-Pyridin-2-yl-thiazol-2-yl)-pyrimidin-2-yl-amine]", "IC50": "1000 to 30000"}]}, {"biological_target": "T1, recombinant human SK4 (hIK1 or hKCa4) channels (Homo sapiens, UniProt O15554+P0DP23)", "T1 construct": "host or cells: HEK 293", "experiment": "not given", "conditions": "applied to the inside of SK4 channel-expressing membrane patches; cited from earlier work", "values": [{"compound": "[Fe]", "note": "[iron]", "activation of SK4 channels": "did not activate"}, {"compound": "[Ba+2]", "note": "[Barium]", "activation of SK4 channels": "activated SK4 channels in a concentration-dependent manner"}, {"compound": "[Pb+2]", "note": "[lead]", "activation of SK4 channels": "activated SK4 channels in a concentration-dependent manner"}, {"compound": "[Sr+2]", "note": "[strontium]", "activation of SK4 channels": "activated SK4 channels in a concentration-dependent manner"}, {"compound": "[Zn+2]", "note": "[zinc]", "activation of SK4 channels": "did not activate"}, {"compound": "[Mg+2]", "note": "[magnesium]", "activation of SK4 channels": "did not activate"}, {"compound": "[Cd]", "note": "[cadmium]", "activation of SK4 channels": "activated SK4 channels in a concentration-dependent manner"}, {"compound": "[Ca+2]", "note": "[calcium]", "activation of SK4 channels": "activated SK4 channels in a concentration-dependent manner"}, {"compound": "[Co+2]", "note": "[cobalt]", "activation of SK4 channels": "did not activate"}]}, {"biological_target": "SK2 subtype channels (Rattus norvegicus, UniProt P70604)", "experiment": "not given", "conditions": "patch clamp; cited from earlier work", "values": [{"compound": "NC(=O)N1c2ccccc2C=Cc2ccccc21", "note": "[carbamazepine]", "block of SK2 channel currents": "block SK2 channel currents with micromolar affinity"}, {"compound": "Nc1c2c(nc3ccccc13)CCCC2", "note": "[tacrine]", "block of SK2 channel currents": "block SK2 channel currents with micromolar affinity"}]}]}
